Results as given in patent US20160212997A1, “AGRICULTURAL CHEMICALS” (REDAG CROP PROTECTION LTD, priority 2013, published 2016).
Read-outs that look alike come from different tables or passages of the source.

Columns and labels:
[1] = system: aphids, Myzus persicae; assay: Potter tower spray on aphids, knockdown and mortality; format: in vivo; conditions: for pest or weed control at 0.000125 % strength / pest or weed control at 0.00025 % strength / pest or weed control at 0.0005 % strength / pest or weed control at 0.001 % strength / pest or weed control at 0.002 % strength / pest or weed control at 0.003125 % strength / pest or weed control at 0.00625 % strength / pest or weed control at 0.0125 % strength / pest or weed control at 0.025 % strength / pest or weed control at 0.05 % strength: Myzus persicae, read-out: Average of % corrected affected; for pest or weed control at 0.003125 % strength / pest or weed control at 0.00625 % strength / pest or weed control at 0.0125 % strength / pest or weed control at 0.025 % strength / pest or weed control at 0.05 % strength / Average of % corrected affected: Aphids; for pest or weed control at 0.003125 % strength: 0.003125 % w/v
Text: The compounds were screened for insecticidal efficacy against aphids, Myzus persicae, Cabbage moth, Mamestra brassicae, diamond black moths, Plutella xylostella, red spider mites, Tetranychus urticae, whitefly, Trialeurodes vaporariorum, in terms of knockdown and mortality.
(§1) Myzus persicae, Cabbage moth, Mamestra brassicae, diamond back moths, Plutella xylostella, red spider mites, Tetranychus urticae, whitefly, Trialeurodes vaporariorum, were obtained from specified laboratory cultures. Mixed sex and age aphids and mites, moth larvae and whitefly scale infested leaves were used in the experiments. Environmental conditions were closely monitored and recorded and were within the optimal range of the target species.
(§2) The compounds were screened at a range of five concentrations, diluted in DMSO. Some of the compounds were screened against aphids, whitefly and red spider mites and other compounds were screened against cabbage moth, and diamond black moths. A carrier only and an untreated control will also be conducted. Treatments were applied directly onto the insects within Petri dishes, using a potter tower.
(§3) Twenty mites and ten aphids, scales and moth larvae were placed within a Petri dish, lined with a suitable leaf disc on a damp cotton wool pad. Scales were already on leaves. The Petri dishes were then sprayed using a potter tower. The number of knocked down and anthropods were assessed at 24 and 48 hours post treatment. Five replicates were be performed for each treatment, for each species.
(§4) For Tables 2, 4, 5 and 6, the compounds were diluted in DMSO containing 1% v/v Tween 20™. For Tables 2, 4, 5 and 6, the caterpillars were a mixture of Mamestra brassicae and Lacanobia oleracea.

[2] = system: caterpillars, a mixture of Mamestra brassicae and Lacanobia oleracea; assay: Potter tower spray on caterpillars, knockdown and mortality; format: in vivo; conditions: for pest or weed control at 0.000125 % strength / pest or weed control at 0.00025 % strength / pest or weed control at 0.0005 % strength / pest or weed control at 0.001 % strength / pest or weed control at 0.002 % strength / pest or weed control at 0.003125 % strength / pest or weed control at 0.00625 % strength / pest or weed control at 0.0125 % strength / pest or weed control at 0.025 % strength / pest or weed control at 0.05 % strength: read-out: Average of % corrected affected; for pest or weed control at 0.003125 % strength / pest or weed control at 0.00625 % strength / pest or weed control at 0.0125 % strength / pest or weed control at 0.025 % strength / pest or weed control at 0.05 % strength / Average of % corrected affected: Caterpillars; for pest or weed control at 0.00625 % strength: 0.00625 % w/v; for pest or weed control at 0.05 % strength: 0.05 % w/v
Text: as §1, §2, §3, §4

[3] = 24 h, 24 hours post application
[4] = 24 h, 0.00625 % w/v, 24 hours post application
[5] = 24 h, 0.0125 % w/v, 24 hours post application
[6] = 24 h, 0.025 % w/v, 24 hours post application
[7] = 24 h, 0.05 % w/v, 24 hours post application
[8] = 48 h, 48 hours post application
[9] = 48 h, 0.0125 % w/v, 48 hours post application
[10] = 48 h, 0.025 % w/v, 48 hours post application
[11] = 48 h, 0.05 % w/v, 48 hours post application
[12] = 24 h, 0.003125 % w/v, 24 hours post application
[13] = 48 h, 0.003125 % w/v, 48 hours post application
[14] = 0.0125 % w/v, 48 hours post application
[15] = 0.025 % w/v, 24 hours post application
[16] = 0.025 % w/v, 48 hours post application

Cc1cc(C2=NOC(c3cc(Cl)cc(Cl)c3)(C(F)(F)F)C2)sc1SCC(=O)NCC(F)(F)F (stereo not drawn) [Compound 20, 2-[[5-[5-(3,5-dichlorophenyl)-5-(trifluoromethyl)-4H-isoxazol-3-yl]-3-methyl-2-thienyl]sulfanyl]-N-(2,2,2-trifluoroethyl)acetamide]
control over aphids compared with reference compound 15 ([1]; 0.002% concentration): more control | pest or weed control at 0.000125 % strength ([1]; 24 h): 1 to 19% | pest or weed control at 0.00025 % strength ([1]; 24 h): 1 to 19% | pest or weed control at 0.0005 % strength ([1]; 24 h): 1 to 19% | pest or weed control at 0.001 % strength ([1]; 24 h): 1 to 19% | pest or weed control at 0.002 % strength ([1]; 24 h): 1 to 19% | pest or weed control at 0.000125 % strength ([1]; 48 h): 1 to 19% | pest or weed control at 0.00025 % strength ([1]; 48 h): 1 to 19% | pest or weed control at 0.0005 % strength ([1]; 48 h): 1 to 19% | pest or weed control at 0.001 % strength ([1]; 48 h): 1 to 19% | pest or weed control at 0.002 % strength ([1]; 48 h): 20 to 39% | control over caterpillars compared with reference compound 15 ([2]; 0.002% concentration): more control | pest or weed control at 0.000125 % strength ([2]; 24 h): 1 to 19% | pest or weed control at 0.00025 % strength ([2]; 24 h): 1 to 19% | pest or weed control at 0.0005 % strength ([2]; 24 h): 1 to 19% | pest or weed control at 0.001 % strength ([2]; 24 h): 1 to 19% | pest or weed control at 0.002 % strength ([2]; 24 h): 20 to 39% | pest or weed control at 0.000125 % strength ([2]; 48 h): 1 to 19% | pest or weed control at 0.00025 % strength ([2]; 48 h): 1 to 19% | pest or weed control at 0.0005 % strength ([2]; 48 h): 1 to 19% | pest or weed control at 0.001 % strength ([2]; 48 h): 1 to 19% | pest or weed control at 0.002 % strength ([2]; 48 h): 20 to 39%

O=C(Nc1ccc(-c2cccnc2)oc1=O)C1CC1 [Compound 25, N-[2-Oxo-6-(3-pyridyl)pyran-3-yl]cyclopropanecarboxamide, reference compound]
pest or weed control at 0.003125 % strength [1, 3]: 1 to 19% | pest or weed control at 0.00625 % strength [1, 4]: 20 to 39% | pest or weed control at 0.0125 % strength [1, 5]: 20 to 39% | pest or weed control at 0.025 % strength [1, 6]: 40 to 59% | pest or weed control at 0.05 % strength [1, 7]: 1 to 19% | pest or weed control at 0.003125 % strength [1, 8]: 1 to 19% | pest or weed control at 0.00625 % strength ([1]; 48 h, 0.00625 % w/v, 48 hours post application): 20 to 39% | pest or weed control at 0.0125 % strength [1, 9]: 20 to 39% | pest or weed control at 0.025 % strength [1, 10]: 60 to 79% | pest or weed control at 0.05 % strength [1, 11]: 40 to 59% | pest or weed control at 0.003125 % strength [2, 12]: 0% | pest or weed control at 0.00625 % strength [2, 3]: 1 to 19% | pest or weed control at 0.0125 % strength [2, 5]: 1 to 19% | pest or weed control at 0.025 % strength [2, 6]: 1 to 19% | pest or weed control at 0.05 % strength [2, 3]: 1 to 19% | pest or weed control at 0.003125 % strength [2, 13]: 1 to 19% | pest or weed control at 0.00625 % strength [2, 8]: 1 to 19% | pest or weed control at 0.0125 % strength [2, 9]: 1 to 19% | pest or weed control at 0.025 % strength [2, 10]: 20 to 39% | pest or weed control at 0.05 % strength [2, 8]: 1 to 19%

O=C(Nc1ccc(-c2cncnc2)oc1=O)C1CC1 [Compound 26, N-[2-Oxo-6-(5-pyrimidyl)pyran-3-yl]cyclopropanecarboxamide]
Average of % corrected affected ([1]; 0.00625 % w/v, 24 hours post application): E (A percentage control of from 1 to 19 is indicated by the letter E) | Average of % corrected affected [1, 14]: E (A percentage control of from 1 to 19 is indicated by the letter E) | Average of % corrected affected [1, 15]: E (A percentage control of from 1 to 19 is indicated by the letter E) | Average of % corrected affected [1, 16]: E (A percentage control of from 1 to 19 is indicated by the letter E) | Average of % corrected affected ([1]; 0.05 % w/v, 24 hours post application): E (A percentage control of from 1 to 19 is indicated by the letter E) | Average of % corrected affected ([1]; 0.05 % w/v, 48 hours post application): E (A percentage control of from 1 to 19 is indicated by the letter E) | pest or weed control at 0.00625 % strength [1, 4]: 1 to 19% | pest or weed control at 0.025 % strength [1, 6]: 1 to 19% | pest or weed control at 0.05 % strength [1, 7]: 1 to 19% | pest or weed control at 0.0125 % strength [1, 9]: 1 to 19% | pest or weed control at 0.05 % strength [1, 11]: 1 to 19% | control against caterpillars compared with reference compound 25 ([2]; 0.05%): greater control | pest or weed control at 0.003125 % strength [2, 12]: 1 to 19% | pest or weed control at 0.0125 % strength [2, 5]: 1 to 19% | pest or weed control at 0.025 % strength [2, 6]: 1 to 19% | pest or weed control at 0.003125 % strength [2, 13]: 1 to 19% | pest or weed control at 0.0125 % strength [2, 9]: 1 to 19% | pest or weed control at 0.025 % strength [2, 10]: 1 to 19% | Average of % corrected affected ([2]; 0.003125 % w/v, 24 hours post application): E (A percentage control of from 1 to 19 is indicated by the letter E) | Average of % corrected affected ([2]; 0.003125 % w/v, 48 hours post application): E (A percentage control of from 1 to 19 is indicated by the letter E) | Average of % corrected affected ([2]; 0.0125 % w/v, 24 hours post application): E (A percentage control of from 1 to 19 is indicated by the letter E) | Average of % corrected affected [2, 14]: E (A percentage control of from 1 to 19 is indicated by the letter E) | Average of % corrected affected [2, 15]: E (A percentage control of from 1 to 19 is indicated by the letter E) | Average of % corrected affected [2, 16]: E (A percentage control of from 1 to 19 is indicated by the letter E)
